What was measured:
[1] = In vitro dissolution test (compartment diffusion through dialysis membrane, sink condition); format: physicochemical
Procedure: Dissolution profiles of nanocrystals of Fluticasone propionate form A of two nanosuspensions of the invention and of Fluticasone propionate form 1 micronized were performed using a dissolution method.
The study was performed using a compartment diffusion analysis through a dialysis membrane and sink condition. The sink condition was achieved through the use of a receptor fluid containing 30 mM phosphate buffer, pH 7.4 with 5% HPβCD cyclodextrins and also by a complete replacement of the buffer every 24 hours to stay below the saturation point. The saturation point was estimated to be 5 μg/g under those experimental conditions and the measurements performed as well as the buffer replacement have shown a maximum concentration of 1.5 μg/g. The study was conducted at a temperature of 37° C. The details of the dissolution test method are provided below:
A 5-fold dilution with the formulation vehicle (placebo solution containing all the formulation excipients including the surfactants) of two 0.1% w/w Fluticasone propionate form A nanosuspensions was conducted to obtain a final concentration of 0.02% w/w Fluticasone propionate inside the dialysis device.
Fluticasone propionate form 1 micronized was suspended in the same phosphate buffer used in the receiving compartment of the dialysis system.
Fluticasone propionate release was carried at 1-2 RPM. […]
These aliquots were immediately centrifuged and the measurements were performed by HPLC

[2] = 14-day repeated dose study, plasma toxicokinetics; parameters: species or system Beagle dogs; conditions: dog, in vivo
Source text: The purpose of this study was to evaluate the toxicokinetic of fluticasone propionate Form A nanosuspensions of the invention (see Table 10 below) administered via topical application directly to the rim (margin) of upper and lower eyelids of both eyes of Beagle dogs.
Fifty naïve Beagle dogs (25 males and 25 females), approximately 5-6 months old and weighing 5.7 to 8.8 kg for males and females at the outset of the study were assigned to treatment groups (groups 1-4) and to vehicle group.
Male and female Beagle dogs were dosed with fluticasone propionate at 1.6, 9.6, and 32 μg/day (bilateral QD topical application) or at 64 μg/day (bilateral BID topical application) via eye lid applicator directly to the upper and lower eyelids of both eyes once or twice daily (minimum of 6 hours between doses) for 14 consecutive days.
Blood for toxicokinetic evaluation was collected from all animals at selected time points on Days 1 and 14.

[3] = 1 h, second nanosuspension (Table 8)
[4] = 3 h, second nanosuspension (Table 8)
[5] = 5 h, second nanosuspension (Table 8)
[6] = 19 h, second nanosuspension (Table 8)

SMILES	% Dissolution Average % ([1]; 1 h) [%]	% Dissolution Tube #1 ([1]; 1 h) [%]	% Dissolution Tube #2 ([1]; 1 h) [%]	% Dissolution Tube #3 ([1]; 1 h) [%]	% Dissolution Average % ([1]; 3 h) [%]	% Dissolution Tube #1 ([1]; 3 h) [%]	% Dissolution Tube #2 ([1]; 3 h) [%]	% Dissolution Tube #3 ([1]; 3 h) [%]	% Dissolution Average % ([1]; 5 h) [%]	% Dissolution Tube #1 ([1]; 5 h) [%]	% Dissolution Tube #2 ([1]; 5 h) [%]	% Dissolution Tube #3 ([1]; 5 h) [%]	also measured
CCC(=O)O[C@]1(C(=O)SCF)[C@H](C)C[C@H]2[C@@H]3C[C@H](F)C4=CC(=O)C=C[C@]4(C)[C@@]3(F)[C@@H](O)C[C@@]21C [Fluticasone propionate form A nanocrystals]	0.0	0.0	0.0	0.0	0.8	0.2	1.4	0.7	2.2	1.3	2.8	2.4	% Dissolution Average % [1, 3]: 0.0%; % Dissolution Tube #1 [1, 3]: 0.0%; % Dissolution Tube #2 [1, 3]: 0.0%; % Dissolution Tube #3 [1, 3]: 0.0%; % Dissolution Average % [1, 4]: 0.7%; % Dissolution Tube #1 [1, 4]: 0.6%; % Dissolution Tube #2 [1, 4]: 0.5%; % Dissolution Tube #3 [1, 4]: 0.8%; % Dissolution Average % [1, 5]: 2.3%; % Dissolution Tube #1 [1, 5]: 2.4%; % Dissolution Tube #2 [1, 5]: 2.0%; % Dissolution Tube #3 [1, 5]: 2.6%; % Dissolution Average % [1, 6]: 19.0%; % Dissolution Tube #1 [1, 6]: 19.0%; % Dissolution Tube #2 ([1]; 24 h): 24.0%; % Dissolution Tube #3 ([1]; 72 h): 74.0%; dissolution profile compared with Fluticasone propionate form 1 micronized material ([1]; tables 7-9): similar
CCC(=O)O[C@]1(C(=O)SCF)[C@H](C)C[C@H]2[C@@H]3C[C@H](F)C4=CC(=O)C=C[C@]4(C)[C@@]3(F)[C@@H](O)C[C@@]21C [Micronized Fluticasone propionate form 1, fluticasone propionate]	0.0	0.0	0.0	0.0	0.7	0.8	0.5	0.9	2.6	2.9	1.9	3.0	% Dissolution Tube #2 ([1]; 48 h): 44.0%
CCC(=O)O[C@]1(C(=O)SCF)[C@H](C)C[C@H]2[C@@H]3C[C@H](F)C4=CC(=O)C=C[C@]4(C)[C@@]3(F)[C@@H](O)C[C@@]21C [Fluticasone Propionate, fluticasone propionate]													maximum concentration in the receptor fluid ([1]; receptor fluid 30 mM phosphate buffer, pH 7.4 with 5% HPβCD, 37° C.): 1.5 µg/g; Dose dependence of exposure [2]: dose-dependent; Gender-related differences in exposure [2]: no discernable gender-related differences
